Results published in PMC5218480 (PLoS ONE, 2017).

Test system: MV-4-11 cells
Experiment: Gene expression microarray analysis (Affymetrix PrimeView) and GSEA
Format: cell-based, human
Set-up: RFU PODN (11730768_x_at) / Fold change /veh PODN (11730768_x_at) / RFU LINC00158 (11744669_a_at) / Fold change /veh LINC00158 (11744669_a_at) / RFU DUSP10 (11751237_a_at) / Fold change /veh DUSP10 (11751237_a_at) / RFU ID3 (11757404_x_at) / Fold change /veh ID3 (11757404_x_at) / RFU PLEKHG5 (11737974_s_at) / Fold change /veh PLEKHG5 (11737974_s_at) / RFU LRRC4B (11730491_at) / Fold change /veh LRRC4B (11730491_at) / RFU GIMAP4 (11747438_a_at) / Fold change /veh GIMAP4 (11747438_a_at) / RFU KRT8 (11758183_x_at) / Fold change /veh KRT8 (11758183_x_at) / RFU CNN1 (11734310_a_at) / Fold change /veh CNN1 (11734310_a_at) / RFU VPS37D (11726825_at) / Fold change /veh VPS37D (11726825_at) / RFU C10orf10 (11716522_x_at) / Fold change /veh C10orf10 (11716522_x_at) / RFU KIR2DL2 /// KIR2DL4 /// KIR2DL5A /// KIR2DL5B /// KIR2DS1 /// KIR2DS2 /// KIR2DS3 /// KIR2DS4 /// KIR3DL3 /// KIR3DL3 /// KIR3DS1 (11738374_at) / Fold change /veh KIR2DL2 /// KIR2DL4 /// KIR2DL5A /// KIR2DL5B /// KIR2DS1 /// KIR2DS2 /// KIR2DS3 /// KIR2DS4 /// KIR3DL3 /// KIR3DL3 /// KIR3DS1 (11738374_at) / RFU C1QL1 (11718748_at) / Fold change /veh C1QL1 (11718748_at) / RFU TMPRSS4 (11747572_a_at) / Fold change /veh TMPRSS4 (11747572_a_at) / RFU HAMP (11756126_x_at) / Fold change /veh HAMP (11756126_x_at) / RFU RNFT2 (11725882_a_at) / Fold change /veh RNFT2 (11725882_a_at) / RFU NR4A2 (11747474_a_at) / Fold change /veh NR4A2 (11747474_a_at) / RFU ABCC12 (11746883_a_at) / Fold change /veh ABCC12 (11746883_a_at) / RFU TMEM136 (11760407_x_at) / Fold change /veh TMEM136 (11760407_x_at) / RFU CLDN22 /// WWC2 (11732394_at) / Fold change /veh CLDN22 /// WWC2 (11732394_at) / RFU HLA-DPB1 (11760878_x_at) / Fold change /veh HLA-DPB1 (11760878_x_at) / RFU SPINT1 (11716480_a_at) / Fold change /veh SPINT1 (11716480_a_at) / RFU GAP43 (11754022_s_at) / Fold change /veh GAP43 (11754022_s_at) / RFU A4GNT (11735810_at) / Fold change /veh A4GNT (11735810_at) / RFU PRB3 (11715151_x_at) / Fold change /veh PRB3 (11715151_x_at) / RFU TUBB4B (11761932_at) / Fold change /veh TUBB4B (11761932_at) / RFU CAPN14 (11732068_a_at) / Fold change /veh CAPN14 (11732068_a_at) / RFU TMCC2 (11721928_a_at) / Fold change /veh TMCC2 (11721928_a_at) / RFU IRGQ (11745062_a_at) / Fold change /veh IRGQ (11745062_a_at) / RFU FAM174B (11720279_a_at) / Fold change /veh FAM174B (11720279_a_at) / RFU TMPRSS4 (11748680_a_at) / Fold change /veh TMPRSS4 (11748680_a_at) / RFU FAM212B (11763350_a_at) / Fold change /veh FAM212B (11763350_a_at) / RFU PLEKHG5 (11743358_a_at) / Fold change /veh PLEKHG5 (11743358_a_at) / RFU ZSCAN30 (11745921_a_at) / Fold change /veh ZSCAN30 (11745921_a_at) / RFU CMKLR1 (11741424_a_at) / Fold change /veh CMKLR1 (11741424_a_at) / RFU LOC101060620 /// MAPK8IP1 (11723275_at) / Fold change /veh LOC101060620 /// MAPK8IP1 (11723275_at) / RFU SPTSSB (11747773_x_at) / Fold change /veh SPTSSB (11747773_x_at) / RFU PRSS12 (11739890_at) / Fold change /veh PRSS12 (11739890_at) / RFU BIN1 (11741810_x_at) / Fold change /veh BIN1 (11741810_x_at) / RFU WNT11 (11732464_a_at) / Fold change /veh WNT11 (11732464_a_at) / RFU C10orf10 (11716521_a_at) / Fold change /veh C10orf10 (11716521_a_at) / RFU C5orf56 (11738089_at) / Fold change /veh C5orf56 (11738089_at) / RFU CYB561 (11721691_x_at) / Fold change /veh CYB561 (11721691_x_at) / RFU ANKRD19P (11752326_a_at) / Fold change /veh ANKRD19P (11752326_a_at) / RFU OR2T12 /// OR2T33 /// OR2T8 (11738714_s_at) / Fold change /veh OR2T12 /// OR2T33 /// OR2T8 (11738714_s_at) / RFU VCAN (11748164_a_at) / Fold change /veh VCAN (11748164_a_at) / RFU JSRP1 (11732532_at) / Fold change /veh JSRP1 (11732532_at) / RFU KRTAP10-11 (11738290_x_at) / Fold change /veh KRTAP10-11 (11738290_x_at) / RFU MYO3A (11730013_a_at) / Fold change /veh MYO3A (11730013_a_at) / RFU EBF3 (11725865_a_at) / Fold change /veh EBF3 (11725865_a_at) / RFU CAMK2N1 (11719241_x_at) / Fold change /veh CAMK2N1 (11719241_x_at) / RFU C5orf56 (11738088_a_at) / Fold change /veh C5orf56 (11738088_a_at) / RFU OLFML3 (11715873_a_at) / Fold change /veh OLFML3 (11715873_a_at) / RFU LOC100653217 /// NTM (11731650_a_at) / Fold change /veh LOC100653217 /// NTM (11731650_a_at) / RFU MAPK11 (11762145_a_at) / Fold change /veh MAPK11 (11762145_a_at) / RFU FIZ1 (11724087_x_at) / Fold change /veh FIZ1 (11724087_x_at) / RFU OASL (11726364_x_at) / Fold change /veh OASL (11726364_x_at) / RFU SOX15 (11748057_x_at) / Fold change /veh SOX15 (11748057_x_at) / RFU CD79A (11719716_a_at) / Fold change /veh CD79A (11719716_a_at) / RFU HIST1H1D (11736915_at) / Fold change /veh HIST1H1D (11736915_at) / RFU CASKIN2 (11723855_a_at) / Fold change /veh CASKIN2 (11723855_a_at) / RFU LOC730098 (11760151_x_at) / Fold change /veh LOC730098 (11760151_x_at) / RFU OR4N2 (11742367_at) / Fold change /veh OR4N2 (11742367_at) / RFU PRRT2 (11749266_a_at) / Fold change /veh PRRT2 (11749266_a_at) / RFU SNX32 (11753110_a_at) / Fold change /veh SNX32 (11753110_a_at) / RFU CDHR5 (11726645_a_at) / Fold change /veh CDHR5 (11726645_a_at) / RFU RCAN1 (11760418_a_at) / Fold change /veh RCAN1 (11760418_a_at) / RFU FAM167A (11723789_a_at) / Fold change /veh FAM167A (11723789_a_at) / RFU FAM26E (11764081_at) / Fold change /veh FAM26E (11764081_at) / RFU ISYNA1 (11749810_s_at) / Fold change /veh ISYNA1 (11749810_s_at) / RFU ACY1 (11761880_at) / Fold change /veh ACY1 (11761880_at) / RFU 11764098_at / Fold change /veh 11764098_at / RFU SAMD14 (11745864_x_at) / Fold change /veh SAMD14 (11745864_x_at) / RFU NPB (11741838_a_at) / Fold change /veh NPB (11741838_a_at) / RFU TMPRSS6 (11731388_a_at) / Fold change /veh TMPRSS6 (11731388_a_at) / RFU KRTAP10-2 (11738614_at) / Fold change /veh KRTAP10-2 (11738614_at) / RFU ARHGAP8 /// PRR5-ARHGAP8 (11727945_x_at) / Fold change /veh ARHGAP8 /// PRR5-ARHGAP8 (11727945_x_at) / RFU KRTAP5-7 /// NADSYN1 (11734609_at) / Fold change /veh KRTAP5-7 /// NADSYN1 (11734609_at) / RFU RASL12 (11751679_a_at) / Fold change /veh RASL12 (11751679_a_at) / RFU CDKN2B (11736163_a_at) / Fold change /veh CDKN2B (11736163_a_at) / RFU PRF1 (11729649_at) / Fold change /veh PRF1 (11729649_at) / RFU, ZNF638 /// ZNF638-IT1 / Fold change vs veh, ZNF638 /// ZNF638-IT1 / RFU, PANK3 / Fold change vs veh, PANK3 / RFU, SH3YL1 / Fold change vs veh, SH3YL1 / RFU, ZEB2 / Fold change vs veh, ZEB2 / RFU, NRIP1 / Fold change vs veh, NRIP1 / RFU, PTTG1IP / Fold change vs veh, PTTG1IP / RFU, CAPN2 / Fold change vs veh, CAPN2 / RFU, MED14 / Fold change vs veh, MED14 / RFU, SNORA58 / Fold change vs veh, SNORA58 / RFU, C1orf63 / Fold change vs veh, C1orf63 / RFU, LRRFIP1 / Fold change vs veh, LRRFIP1 / RFU, NDUFAF7 / Fold change vs veh, NDUFAF7 / RFU, SLC12A2 / Fold change vs veh, SLC12A2 / RFU, IBTK / Fold change vs veh, IBTK / RFU, ESF1 / Fold change vs veh, ESF1 / Fold change vs veh, TMEM50B / RFU, TAOK1 / Fold change vs veh, TAOK1 / RFU, ACBD3 / Fold change vs veh, ACBD3 / RFU, TMA16 / Fold change vs veh, TMA16 / RFU, RWDD3 / Fold change vs veh, RWDD3 / RFU, BCAT1 / Fold change vs veh, BCAT1 / RFU, EDEM3 / Fold change vs veh, EDEM3 / RFU, TMEM33 / Fold change vs veh, TMEM33 / RFU, WDR75 / Fold change vs veh, WDR75 / RFU, AHCTF1 / Fold change vs veh, AHCTF1 / RFU, TFRC / Fold change vs veh, TFRC / RFU, ZDHHC17 / Fold change vs veh, ZDHHC17 / RFU, NOM1 / Fold change vs veh, NOM1 / RFU, ARL8B / Fold change vs veh, ARL8B / RFU, ZBTB11 / Fold change vs veh, ZBTB11 / RFU, TAMM41 / Fold change vs veh, TAMM41 / RFU, KIAA1704 /// LOC100996395 / Fold change vs veh, KIAA1704 /// LOC100996395 / RFU, ING1 / Fold change vs veh, ING1 / RFU, TRMT61B / Fold change vs veh, TRMT61B / RFU, FUBP3 / Fold change vs veh, FUBP3 / RFU, TP53 / Fold change vs veh, TP53 / RFU, TNKS2 / Fold change vs veh, TNKS2 / RFU, ZFP14 / Fold change vs veh, ZFP14 / RFU, ACTR2 / Fold change vs veh, ACTR2 / RFU, PPP3R1 / Fold change vs veh, PPP3R1 / RFU, PIK3R1 / Fold change vs veh, PIK3R1 / RFU, HNRNPA1 / Fold change vs veh, HNRNPA1 / RFU, RNF170 / Fold change vs veh, RNF170 / RFU, ZNF28 / Fold change vs veh, ZNF28 / RFU, RNGTT / Fold change vs veh, RNGTT / RFU, OGT / Fold change vs veh, OGT / RFU, BRD1 / Fold change vs veh, BRD1 / RFU, MARS / Fold change vs veh, MARS / RFU, ZNF655 / Fold change vs veh, ZNF655 / RFU, FAHD1 / Fold change vs veh, FAHD1 / RFU, BDP1 / Fold change vs veh, BDP1 / RFU, LRRCC1 / Fold change vs veh, LRRCC1 / RFU, ARID1A / Fold change vs veh, ARID1A / RFU, ZNF146 / Fold change vs veh, ZNF146 / RFU, ZNF330 / Fold change vs veh, ZNF330 / RFU, GPN3 / Fold change vs veh, GPN3 / RFU, C9orf123 / Fold change vs veh, C9orf123 / RFU, N4BP2L2 / Fold change vs veh, N4BP2L2 / RFU, ARFIP1 / Fold change vs veh, ARFIP1 / RFU, FAM179B / Fold change vs veh, FAM179B / RFU, BCL10 / Fold change vs veh, BCL10 / RFU, UHRF1BP1L / Fold change vs veh, UHRF1BP1L / RFU, BET1 / Fold change vs veh, BET1 / RFU, CNOT2 / Fold change vs veh, CNOT2 / RFU, ZNF268 / Fold change vs veh, ZNF268 / Fold change vs veh, ZNF507 / RFU, DGCR2 / Fold change vs veh, DGCR2 / RFU, WDSUB1 / Fold change vs veh, WDSUB1 / Fold change vs veh, HSP90B1 /// MIR3652 / RFU, ADSS / Fold change vs veh, ADSS / RFU, GK / Fold change vs veh, GK / RFU, ZNF148 / Fold change vs veh, ZNF148 / RFU, TAF9 / Fold change vs veh, TAF9 / RFU, SLC1A5 / Fold change vs veh, SLC1A5 / RFU, SLMO2 / Fold change vs veh, SLMO2 / RFU, ABCC4 / Fold change vs veh, ABCC4 / RFU, LOC101060439 /// RAP1B / Fold change vs veh, LOC101060439 /// RAP1B / RFU, RFX7 / Fold change vs veh, RFX7 / RFU, GTPBP10 / Fold change vs veh, GTPBP10 / RFU, CNEP1R1 / Fold change vs veh, CNEP1R1 / RFU, BIVM-ERCC5 /// ERCC5 / Fold change vs veh, BIVM-ERCC5 /// ERCC5 / RFU, ILF3 / Fold change vs veh, ILF3 / RFU 11762660_at / Fold change /veh 11762660_at / RFU VCAN (11757783_s_at) / Fold change /veh VCAN (11757783_s_at) / RFU DDX43 (11728927_at) / Fold change /veh DDX43 (11728927_at) / RFU KRT8 (11758188_x_at) / Fold change /veh KRT8 (11758188_x_at) / RFU NKD1 (11759106_at) / Fold change /veh NKD1 (11759106_at) / RFU SRD5A1 (11742802_a_at) / Fold change /veh SRD5A1 (11742802_a_at) / RFU TPSAB1 /// TPSB2 (11721975_s_at) / Fold change /veh TPSAB1 /// TPSB2 (11721975_s_at) / RFU GSTM3 (11746129_a_at) / Fold change /veh GSTM3 (11746129_a_at) / RFU IL23R (11737362_x_at) / Fold change /veh IL23R (11737362_x_at) / RFU TMEM51 (11727254_a_at) / Fold change /veh TMEM51 (11727254_a_at) / RFU PIWIL2 (11732686_x_at) / Fold change /veh PIWIL2 (11732686_x_at) / RFU ORM1 (11744905_x_at) / Fold change /veh ORM1 (11744905_x_at) / RFU CCDC152 (11743942_at) / Fold change /veh CCDC152 (11743942_at) / RFU ECM1 (11717891_a_at) / Fold change /veh ECM1 (11717891_a_at) / RFU IL23R (11748794_a_at) / Fold change /veh IL23R (11748794_a_at) / RFU TNFAIP8L3 (11732012_x_at) / Fold change /veh TNFAIP8L3 (11732012_x_at) / RFU MBOAT4 (11741988_at) / Fold change /veh MBOAT4 (11741988_at) / RFU 11764193_at / Fold change /veh 11764193_at / RFU TMEM53 (11763286_at) / Fold change /veh TMEM53 (11763286_at) / RFU MAGEB2 (11727129_at) / Fold change /veh MAGEB2 (11727129_at) / RFU TMEM200A (11744735_a_at) / Fold change /veh TMEM200A (11744735_a_at) / RFU CCDC152 (11751479_a_at) / Fold change /veh CCDC152 (11751479_a_at) / RFU FAM211A (11726209_a_at) / Fold change /veh FAM211A (11726209_a_at) / RFU RGS16 (11746705_a_at) / Fold change /veh RGS16 (11746705_a_at) / RFU VCAN (11755009_s_at) / Fold change /veh VCAN (11755009_s_at) / RFU RHOB (11743442_s_at) / Fold change /veh RHOB (11743442_s_at) / RFU RGS16 (11720943_a_at) / Fold change /veh RGS16 (11720943_a_at) / RFU RGS16 (11720944_at) / Fold change /veh RGS16 (11720944_at) / RFU, VPS4B / Fold change vs veh, VPS4B / RFU, CREB1 / Fold change vs veh, CREB1 / RFU, DNAJC13 / Fold change vs veh, DNAJC13 / RFU, GNAQ / Fold change vs veh, GNAQ / RFU, CDK5R1 / Fold change vs veh, CDK5R1 / RFU, ZRANB3 / Fold change vs veh, ZRANB3 / RFU, CUL4A / Fold change vs veh, CUL4A / RFU, CCNY / Fold change vs veh, CCNY / RFU, UFL1 / Fold change vs veh, UFL1 / RFU, COG3 / Fold change vs veh, COG3 / RFU, DIAPH2 / Fold change vs veh, DIAPH2 / RFU, SKA2 / Fold change vs veh, SKA2 / RFU, AFF3 / Fold change vs veh, AFF3 / RFU, LMF1 / Fold change vs veh, LMF1 / RFU, IPO11 / Fold change vs veh, IPO11 / RFU, DFFB / Fold change vs veh, DFFB / RFU, FOXP1 / Fold change vs veh, FOXP1 / RFU, CARD8 / Fold change vs veh, CARD8 / RFU, STRN3 / Fold change vs veh, STRN3 / RFU, ADK / Fold change vs veh, ADK / RFU, RASSF2 / Fold change vs veh, RASSF2 / RFU, WIPF1 / Fold change vs veh, WIPF1 / RFU, LARP1B / Fold change vs veh, LARP1B / RFU, RASA1 / Fold change vs veh, RASA1 / RFU, RB1 / Fold change vs veh, RB1 / RFU, PPFIA1 / Fold change vs veh, PPFIA1 / RFU, MAT2A / Fold change vs veh, MAT2A / RFU, CCT5 / Fold change vs veh, CCT5 / RFU, WDR92 / Fold change vs veh, WDR92 / RFU, CUX1 / Fold change vs veh, CUX1 / RFU, TTC7A / Fold change vs veh, TTC7A / RFU, TMEM135 / Fold change vs veh, TMEM135 / RFU, DEPTOR / Fold change vs veh, DEPTOR / RFU, CPM / Fold change vs veh, CPM / RFU, DNAJB6 / Fold change vs veh, DNAJB6 / RFU, CACNA2D3 / Fold change vs veh, CACNA2D3 / RFU, DTX4 / Fold change vs veh, DTX4 / RFU, TFCP2 / Fold change vs veh, TFCP2 / RFU, GMCL1 /// GMCL1P1 / Fold change vs veh, GMCL1 /// GMCL1P1 / RFU, AEBP2 / Fold change vs veh, AEBP2 / RFU, SNHG1 /// SNORD22 /// SNORD25 /// SNORD26 /// SNORD27 /// SNORD28 /// SNORD29 /// SNORD31 / Fold change vs veh, SNHG1 /// SNORD22 /// SNORD25 /// SNORD26 /// SNORD27 /// SNORD28 /// SNORD29 /// SNORD31 / Fold change (Aza/veh), C12orf56 (ProbeSet 11735607_a_at) / Fold change (ACY-1035/veh), C12orf56 (ProbeSet 11735607_a_at) / Fold change (Aza/veh), FGFR1OP (ProbeSet 11751329_s_at) / Fold change (ACY-1035/veh), FGFR1OP (ProbeSet 11751329_s_at) / Fold change (Aza/veh), VPS36 (ProbeSet 11739960_a_at) / Fold change (ACY-1035/veh), VPS36 (ProbeSet 11739960_a_at) / RFU SYPL1 (11715823_x_at) / Fold change /veh SYPL1 (11715823_x_at) / RFU IGFBP7 (11715501_s_at) / Fold change /veh IGFBP7 (11715501_s_at) / RFU REEP3 (11722064_at) / Fold change /veh REEP3 (11722064_at) / RFU IGLL1 (11728026_x_at) / Fold change /veh IGLL1 (11728026_x_at): dose or concentration left out as unconfirmed
Conditions: ProbeSet 11760938_a_at; LIST D

SMILES: Nc1ccc(-c2cccs2)cc1NC(=O)c1ccc2c(c1)cc(C1CC1)n2CCN1CCOCC1 [ACY-1035]
- Fold change vs veh, MAT2A: 0.84
